Among the data in ChEMBL document CHEMBL1124377, “Potent and prolonged acting cyclic lactam analogues of alpha-melanotropin: design based on molecular dynamics” (J Med Chem, 1989) are Relative potency values, retold here.

The subject of assay [1] is Melanocyte-stimulating hormone receptor (Rana pipiens). The assay is described as follows: […] potency against Rana pipiens using frog skin bioassay; effect did not continue after the removal of the compound.
The subject of assay [2] is Melanocyte-stimulating hormone receptor (Anolis carolinensis). The assay is described as follows: […] potency against Anolis carolinensis using lizard skin bioassay; effect did not continue after the removal of the compound.

Consider `CCCC[C@H](NC(C)=O)C(=O)N[C@H]1CC(=O)NCCC[C@@H](C(N)=O)NC(=O)[C@H](Cc2c[nH]c3ccccc23)NC(=O)[C@H](CCCN=C(N)N)NC(=O)[C@@H](Cc2ccccc2)NC(=O)[C@H](Cc2cnc[nH]2)NC1=O`, for which the results for the Relative potency in assay [1] and in assay [2] were 1 and 20, respectively.
